Reference: PubChem BioAssay AID2821 (Broad Institute, 2010)
pIC50: −log10 of the molar value. Calls of active or inactive are those of the source.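 The calls were made as follows: active = IC50 no more than a set number of log units above the top dose tested; inconclusive = flat fit with 30 to 70% inhibition, or a poor fit; inactive = IC50 beyond that set limit.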

Biological target: Serine/threonine-protein kinase 33 (Homo sapiens) (UniProt Q9BYT3)
Experiment: STK33 kinase inhibitors, dose response, biochemical, luminescence, cell-free, retest (AID 2821)
Settings: purified STK33, MBP substrate, ADP-Glo luminescence

Chain of Serine/threonine-protein kinase 33 (Homo sapiens) (Q9BYT3 whole entry, looked up): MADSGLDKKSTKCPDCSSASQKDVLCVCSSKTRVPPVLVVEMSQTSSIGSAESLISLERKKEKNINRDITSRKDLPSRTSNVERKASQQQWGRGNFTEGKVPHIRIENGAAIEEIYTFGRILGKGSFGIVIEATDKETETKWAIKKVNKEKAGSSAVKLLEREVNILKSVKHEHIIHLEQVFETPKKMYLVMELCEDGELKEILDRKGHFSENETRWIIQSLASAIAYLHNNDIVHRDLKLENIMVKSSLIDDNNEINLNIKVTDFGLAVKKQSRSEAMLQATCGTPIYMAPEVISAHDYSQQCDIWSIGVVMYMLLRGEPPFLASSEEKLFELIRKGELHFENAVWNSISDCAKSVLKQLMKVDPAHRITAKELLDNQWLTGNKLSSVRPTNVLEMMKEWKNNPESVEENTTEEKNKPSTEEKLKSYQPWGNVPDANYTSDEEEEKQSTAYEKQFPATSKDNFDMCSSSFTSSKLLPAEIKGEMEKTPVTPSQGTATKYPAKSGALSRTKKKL

| pIC50 | IC50 | Structure (SMILES) |
| --- | --- | --- |
| – | > 12 µM (inactive) | COc1cc(C2c3sc(=O)[nH]c3SC3C(=O)N(c4ccc(C)cc4)C(=O)C32)ccc1O (stereo not given) |
| 5.76 | – | COc1cc(/C=C/C(O)=C/C(=O)/C=C/c2ccc(O)cc2)ccc1O |
| 4.93 | – | COC(=O)c1cccc2c1-c1ccccc1/C2=N/O |
| 6.15 | – | COc1cc(/C=C/C(=O)/C=C(O)/C=C/c2ccc(O)c(OC)c2)ccc1O |
| 5.28 | – | COc1ccc(N=Cc2c(O)[nH]c3ccccc23)cc1OC |
| 5.31 | – | COc1cc(N=Cc2c(O)[nH]c3ccccc23)cc(OC)c1OC |
| 5.52 | – | Oc1ccc(/C=N/Nc2ccnc3cc(Cl)ccc23)cc1O |

The next lines start with the molecule.

| Structure (SMILES) | pIC50 | IC50 |
| --- | --- | --- |
| CCCn1c2ccc(/C(C)=N\O)cc2c2cc(/C(C)=N/O)ccc21 | 5.61 | – |
| Oc1ccc(/C=C/c2ccnc3ccccc23)cc1 | 4.94 | – |
| Oc1[nH]c2ccccc2c1C=Nc1ccc2c(c1)OCO2 | 4.95 | – |
| O=c1c(/C=N/O)c(Nc2ccccc2)nc2ccccn12 | 5.21 | – |
| NS(=O)(=O)c1ccc2c(c1)C(=NO)c1cc(S(N)(=O)=O)ccc1-2 | 5.31 | – |
| O=C1C(c2ccncc2)=C(O)c2ccccc21 | 4.99 | – |
| CCn1c2ccc(/C(C)=N\O)cc2c2cc(/C(C)=N\O)ccc21 | – | > 12 µM (inactive) |
| N#C/C(=C(/O)c1ccco1)c1nc2ccccc2[nH]1 | 5.07 | – |
